Source: patent US20240000071A1, “DEVICES, COMPOUNDS AND METHODS FOR INSECT CONTROL” (Agriculture Victoria Services Pty Ltd, priority 2020, published 2024)
Like-named read-outs stand apart in the source and are kept apart here.

Tests used:
[1] = tested on: Queensland fruit flies antennae and palps; test: Electroantennogram (EAG) and Electropalpogram (EPG) screening; parameters: species or system Bactrocera tryoni
Description: FIG. 2. Electrophysiological responses of Queensland fruit flies antennae (A) and palps (B) to fungal (FV) components. Graphs located on the upper part of each figure represent the electric potential of the antenna/palp. Arrows indicate points in time at which chemical stimulations are applied. Olfactory “responses” are characterised by sudden drops (spike) of the electric potential in the antenna; the amplitude of which is positively correlated to response strength. Stars indicate statistical significance of response amplitudes elicited by test compounds compared to that of the solvent (blank=paraffin oil). Bars represent the normalized responses relative to a positive control (ethyl hexanoate) of male (grey) and female (white) flies. Letters above bars indicate significant differences in response strength between each sex.
Graphs located on the upper part represent the electric potential of the antenna/palp. Arrows indicate points in time at which chemical stimulations are applied. Olfactory “responses” are characterised by sudden drops (spike) of the electric potential in the antenna; the amplitude of which is positively correlated to response strength. Stars indicate statistical significance of response amplitudes elicited by test compounds compared to that of the solvent (blank=paraffin oil). Bars represent the normalized responses relative to a positive control (ethyl hexanoate) of male (grey) and female (white) flies. Letters above bars indicate significant differences in response strength between male and female Qfly.

[2] = Release rate from LDPE sachets by gravimetry; format: physicochemical; settings: for Release rate per thickness of LDPE pouch: 22° C., constant, laboratory; for Estimated longevity: standard size sachet (50 cm^2), 1 ml of neat compound
Description: Sachets consist of plastic pouches made of Low Density PolyEthylene (LDPE) layflat tubing of determined size and thickness. Each sachet contained one or several dental wicks (approximately 4 cm length and 1 cm diameter) on which a given amount of the neat chemical compound was applied (between 0.1 and 5 g). The impregnated wick (20) was subsequently enclosed in the LDPE pouch (10) and sealed using a heat sealer (FIG. 3).
Release rates of the short chain esters and fungal alcohols were investigated in a range of sachet designs.

[3] = tested on: female B. tryoni; test: GC-FID-EAD with odours of infested yellow nectarines; parameters: species or system Bactrocera tryoni; settings: female B. tryoni antenna
Experimental: Gas-chromatography linked to electrophysiology (GC-FID-EAD) was conducted using female B. tryoni and odours of infested yellow nectarines (collected by SPME), to identify volatiles of interest as candidate female attractants.

[4] = tested on: Mediterranean fruit fly, Ceratitis capitata; settings: cited from earlier work

Row | SMILES | electrophysiological responses (EAG/EPG) ([1]; listed as 2-methyl-1-butanol) | electrophysiological responses (EAG/EPG) ([1]; listed as 2-methylbutanol) | Release rate per thickness of LDPE pouch ([2]; 50 μm LDPE pouch) [mg/day] | Release rate per thickness of LDPE pouch ([2]; 100 μm LDPE pouch) [mg/day] | Release rate per thickness of LDPE pouch ([2]; 150 μm LDPE pouch) [mg/day] | Estimated longevity [2] | Release rate per thickness of LDPE pouch ([2]; 200 μm LDPE pouch) [mg/day] | electrophysiological responses (EAG/EPG) [1] | electrophysiological responses (EAG/EPG) ([1]; listed as iso-butyl alcohol) | electrophysiological (EAD) response [3] | electrophysiological response in EAG [4]
1 | CCC(C)CO (stereo not shown) [2-Methyl-butanol, 2-methyl-1-butanol] | strong electrophysiological responses | strong responses | 16.4 | 4.1 | 2.1 | >1 year |  |  |  |  | 
2 | CCOC(=O)CC [Ethyl propionate] |  |  | 880 | 321 | 200 | ~5 days | 171 |  |  |  | 
3 | CC(C)CCO [Isoamyl alcohol] |  |  | 12 | 3 | 2 | >1 year |  | strong electrophysiological responses |  |  | 
4 | CCOC(C)=O [Ethyl acetate] |  |  | 880 | 302.7 | 180.6 | ~6 days | 134 |  |  |  | 
5 | CCCC(=O)OCC [Ethyl butyrate] |  |  | 700 | 295 | 171 | ~6 days | 127 |  |  |  | 
6 | CC(C)CO [Isobutyl alcohol] |  |  | 20 | 4 | 2 | >1 year |  | weak and inconsistent responses | strong electrophysiological responses |  | 
7 | CCCCCCC1CCC(=O)O1 (stereo not shown) [γ-decalactone] |  |  |  |  |  |  |  |  |  | significant response | evoke an electrophysiological response
